Results: patent US6806085B1, “2-deoxyglucose-6-phosphate (2-DOG-6-P) phosphatase DNA sequences as selection marker in plants” (IPK Gatersleben, priority 1997, dated 2004)

How the values were obtained:
yeast cells = details: addition of 2-DOG; cited from earlier work
tobacco seedlings = assay: Tobacco seedlings on 0.05% 2-DOG containing MS medium; type: in vivo, Nicotiana tabacum Var. Samsun NN; details: four weeks
Description: Seeds of Nicotiana tabacum Var. Samsun NN were sterilized and placed on 0.05% 2-DOG containing MS medium. A: four weeks old seedlings of an untransformed plant; B: four weeks old seedlings of a plant expressing the DOG^R1 gene under the control of the 35S promoter. In order to detect the resistance of seedlings expressing the DOG^R1 gene seeds of the tobacco plants described in Examples 5 and 6 as well as seeds of untransformed tobacco plants were sterilized and placed on 0.05% 2-DOG containing MS medium.

Nicotiana tabacum cells = details: cited from earlier work
tobacco leaf disks = assay: Toxicity of 2-DOG for plant cells, tobacco leaf pieces on 2-DOG-containing MS medium; type: cell-based, Nicotiana tabacum Var. Samsun NN; details: MS medium with 0.01 to 0.5% 2-DOG, two weeks
Description: (§1) FIGS. 2A and 2B Cultivation of tobacco (Nicotiana tabacum Var. Samsun NN, A-D) and potato (Solanum tuberosum var. Solara, E-H) leaf disks on 2-DOG-containing MS medium. A, E: control MS medium without addition of 2-deoxyglucose; B, F: MS medium with 0.05% 2-DOG; C, G:MS medium with 0.1% 2-DOG; D, H: MS medium with 0.5% 2-DOG. For the detection of the toxicity of 2-DOG leaf pieces (about 1 cm^2) of sterile tobacco and potato plants were cultivated for two weeks on Murashige and Skoog medium (Murashige & Skoog (1962) Physiol. Plant. 15, 473), to which 0.01 to 0.5% 2-DOG had been added.

pea calli = assay: Pea calli on 0.075% 2-DOG containing medium; type: cell-based, Pisum sativum
Description: Calli of pea plants Pisum sativum were placed on 0.075% 2-DOG containing B5 medium. A: calllus of untransformed plant on 0.075% 2-DOG; B: callus of a plant expressing the DOG^R1 gene under the control of the 35S promoter on 0.075% 2-DOG. The construct described in Example 10 was transferred to pea plants of Pisum sativum by Agrobacteria-mediated transformation. Calli of transformed and untransformed plants were placed on 0.075% 2-DOG containing medium.

potato leaf disks = assay: Toxicity of 2-DOG for plant cells, potato leaf pieces on 2-DOG-containing MS medium; type: cell-based, Solanum tuberosum var. Solara; details: MS medium with 0.01 to 0.5% 2-DOG, two weeks
Description: as §1

[1] = system: root growth of many plants; details: addition of 2-DOG; cited from earlier work
[2] = system: Picea excelsa (spruce) cells; details: cited from earlier work
potato shoots = assay: Potato shoots on 0.05% 2-DOG containing MS medium; type: in vivo, Solanum tuberosum var. Solara; details: five weeks
Description: Shoots of potato plants Solanum tuberosum var. Solara were placed on 0.05% 2-DOG containing MS medium. A: five weeks old shoot of an untransformed plant; B: five weeks old shoot of a plant expressing the DOG^R1 gene under the control of the 35S promoter. The construct described in Example 3 was transferred to potato plants Solanum tuberosum var. Solara by Agrobacteria-mediated transformation. The regenerated shoots were cultivated on selection-free medium. After six weeks the tips of the shoots were transferred to 0.05% 2-DOG containing MS medium.

SMILES: O=CC[C@@H](O)[C@H](O)[C@H](O)CO [2-DOG, 2-deoxyglucose]
- respiration and growth of cells (yeast cells): inhibition of the respiration and the growth of cells
- seedling survival (tobacco seedlings; seedlings expressing DOG^R1 gene under 35S promoter): vital
- seedling survival (tobacco seedlings; seedlings of untransformed plants): died at an early stage of development
- cell growth in tissue culture (Nicotiana tabacum cells): strongly inhibited
- effect on leaf disks (tobacco leaf disks): caused the leaf disks to die
- shoot development from callus (pea calli; callus of untransformed plants): did not develop Shoots
- shoot development from callus (pea calli; callus transformed with DOG^R1 gene under 35S promoter): developed shoots
- effect on leaf disks (potato leaf disks): caused the leaf disks to die
- root growth [1]: inhibits the root growth
- cell growth in tissue culture [2]: strongly inhibited
- shoot growth (potato shoots; shoot expressing DOG^R1 gene under 35S promoter): exhibits root and stem growth
- shoot growth (potato shoots; shoot of untransformed plant): has not grown
